Assay results taken from ChEMBL document CHEMBL1201862, “PubChem BioAssay data set” (2004).
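Protocol summary: plate cells (96-well), add compound at 5 concentrations, incubate 48 h, interpolate endpoints linearly. GI50 marks 50% less growth.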 Active and inactive are the calls of the source. Cut-off read from the data, not from the text of the source: active = GI50 up to about 1.1 µM and inactive = higher.

What was measured:
Test in all cases: NCI tumour cell line growth inhibition, 48 h
A498 = test system: A498
CAKI-1 = test system: CAKI-1
DU-145 = test system: DU-145
HCT-116 = test system: HCT-116
HCT-15 = test system: HCT-15
HOP-92 = test system: HOP-92
Malme-3M = test system: Malme-3M
NCI-H522 = test system: NCI-H522
OVCAR-4 = test system: OVCAR-4
SF-268 = test system: SF-268
SF-295 = test system: SF-295
SF-539 = test system: SF-539
SK-OV-3 = test system: SK-OV-3
SN12C = test system: SN12C
SNB-19 = test system: SNB-19
SNB-75 = test system: SNB-75
TK-10 = test system: TK-10
U-251 = test system: U-251
UACC-62 = test system: UACC-62
SR = test system: SR

| SMILES | GI50 (A498) | GI50 (CAKI-1) | GI50 (DU-145) | GI50 (HCT-116) | GI50 (HCT-15) [µM] | GI50 (HOP-92) | GI50 (Malme-3M) | GI50 (NCI-H522) | GI50 (OVCAR-4) | GI50 (SF-268) | GI50 (SF-295) | GI50 (SF-539) | GI50 (SK-OV-3) | GI50 (SN12C) | GI50 (SNB-19) | GI50 (SNB-75) | GI50 (TK-10) | GI50 (U-251) | GI50 (UACC-62) | GI50 (SR) |
| --- | --- | --- | --- | --- | --- | --- | --- | --- | --- | --- | --- | --- | --- | --- | --- | --- | --- | --- | --- | --- |
| COc1cc(N(C)C)ccc1C=c1c2ccccc2n2c1cc(-c1ccccc1)[n+]2C | 1.65 µM (inactive) | 0.472 µM (active) | 0.323 µM (active) | 0.175 µM (active) | 0.979 | 0.319 µM (active) | 1.02 µM (active) | 0.169 µM (active) | 0.453 µM (active) | 0.495 µM (active) | 0.336 µM (active) | 0.0813 µM (active) | 0.347 µM (active) | 0.296 µM (active) | 0.372 µM (active) | 0.33 µM (active) | 0.575 µM (active) | 0.0581 µM (active) | 0.582 µM (active) |  |
| CC#CC(O)(C(=O)OC1CC(C)N(C)C(C)(C)C1)C1CCCC1 (stereo unspecified) |  | > 100 µM (inactive) | > 100 µM (inactive) | > 100 µM (inactive) | > 100 |  | > 100 µM (inactive) | > 100 µM (inactive) |  | > 100 µM (inactive) | > 100 µM (inactive) | > 100 µM (inactive) | > 100 µM (inactive) | > 100 µM (inactive) | > 100 µM (inactive) | > 100 µM (inactive) | > 100 µM (inactive) | > 100 µM (inactive) | > 100 µM (inactive) | > 100 µM (inactive) |
| CN1C(c2ccccc2)CC(O)CC1c1ccccc1 (stereo unspecified) | > 100 µM (inactive) | > 100 µM (inactive) |  | > 100 µM (inactive) | > 100 | > 100 µM (inactive) | > 100 µM (inactive) | > 100 µM (inactive) | > 100 µM (inactive) | > 100 µM (inactive) | > 100 µM (inactive) | > 100 µM (inactive) | > 100 µM (inactive) | > 100 µM (inactive) | > 100 µM (inactive) | > 100 µM (inactive) | > 100 µM (inactive) | > 100 µM (inactive) | > 100 µM (inactive) | > 100 µM (inactive) |
| O=C(/C=C/c1c[nH]c2ccccc12)c1ccccc1O | 15.1 µM (inactive) |  | 11.7 µM (inactive) | 12.9 µM (inactive) | 9.89 | 4.68 µM (inactive) | 11.7 µM (inactive) | 7.64 µM (inactive) | 10.7 µM (inactive) | 16.6 µM (inactive) | 10.4 µM (inactive) | 12.6 µM (inactive) | 15.1 µM (inactive) | 13.8 µM (inactive) | 16.5 µM (inactive) | 11.6 µM (inactive) | 18.3 µM (inactive) | 13.4 µM (inactive) | 8.17 µM (inactive) |  |
| N#Cc1cc([N+](=O)[O-])ccc1NC(=O)/C(=N/N)C(C(=O)c1ccc(Cl)c(Cl)c1)C1OC(=O)c2ccccc21 (stereo unspecified) | 29.4 µM (inactive) | 38.1 µM (inactive) |  | 39.1 µM (inactive) | 42.2 | 8.81 µM (inactive) | > 100 µM (inactive) | 26.1 µM (inactive) | 30.8 µM (inactive) | 59.8 µM (inactive) | 26.4 µM (inactive) | 67.5 µM (inactive) | > 100 µM (inactive) | 90.8 µM (inactive) | 69.3 µM (inactive) |  |  | 42.9 µM (inactive) | 31 µM (inactive) | 54.2 µM (inactive) |
| Cc1cc(C)c2c(=N)c3ccccc3n(CCCCCCO)c2n1 | 10.5 µM (inactive) | 2.48 µM (inactive) | 5.48 µM (inactive) | 3.11 µM (inactive) | 2.88 | 4.26 µM (inactive) | 2.63 µM (inactive) | 1.44 µM (inactive) | 2.45 µM (inactive) | 3.62 µM (inactive) | 3.36 µM (inactive) | 2.33 µM (inactive) | 5.2 µM (inactive) | 1.95 µM (inactive) | 5.6 µM (inactive) | 1.88 µM (inactive) | 3.15 µM (inactive) | 3.51 µM (inactive) | 2.64 µM (inactive) |  |
| CCN(CC)C(=S)N/N=C/c1ccccn1 |  | < 0.01 µM (active) | 0.154 µM (active) | < 0.01 µM (active) | < 0.01 | 0.113 µM (active) | 0.0205 µM (active) | < 0.01 µM (active) |  | < 0.0177 µM (active) | < 0.0483 µM (active) | < 0.0382 µM (active) | < 0.0192 µM (active) | 0.0212 µM (active) | < 0.0118 µM (active) | 0.624 µM (active) |  | < 0.01 µM (active) | < 0.0328 µM (active) |  |
| CC12ON=C(c3ccccc3)N1C=CN1C(c3ccccc3)=NOC12 (stereo unspecified) |  | > 100 µM (inactive) | > 100 µM (inactive) | 98.6 µM (inactive) | > 100 |  | > 100 µM (inactive) | > 100 µM (inactive) |  | > 100 µM (inactive) | > 100 µM (inactive) | > 100 µM (inactive) | > 100 µM (inactive) |  | > 100 µM (inactive) | > 100 µM (inactive) | > 100 µM (inactive) |  | > 100 µM (inactive) |  |
| CCc1c2c(cc3c1CC1(C3)Cc3cc4c(c(C(=O)OC)c3C1)CCCC4)CCCC2 (stereo unspecified) | > 100 µM (inactive) |  |  | 20 µM (inactive) | > 100 | > 100 µM (inactive) | > 100 µM (inactive) | > 100 µM (inactive) | > 100 µM (inactive) |  | > 100 µM (inactive) | > 100 µM (inactive) | > 100 µM (inactive) | > 100 µM (inactive) |  |  | > 100 µM (inactive) | > 100 µM (inactive) | 18.5 µM (inactive) | 51.8 µM (inactive) |
| Cc1ccc(NC(=O)CC2C(=O)Nc3ccccc3S2(=O)=O)cc1C (stereo unspecified) | > 100 µM (inactive) | > 100 µM (inactive) |  | > 100 µM (inactive) | > 100 | > 100 µM (inactive) | > 100 µM (inactive) | > 100 µM (inactive) | > 100 µM (inactive) | > 10 µM (inactive) | > 100 µM (inactive) | > 100 µM (inactive) |  | > 100 µM (inactive) | > 100 µM (inactive) | > 100 µM (inactive) | > 100 µM (inactive) | > 100 µM (inactive) | 84.7 µM (inactive) | > 100 µM (inactive) |
| Cc1c(-c2nnc(-c3ccccc3)o2)c(=O)n(-c2ccccc2)n1C | > 100 µM (inactive) |  |  | > 100 µM (inactive) | > 100 | > 100 µM (inactive) | > 100 µM (inactive) | > 100 µM (inactive) | > 100 µM (inactive) | > 100 µM (inactive) | > 100 µM (inactive) | > 100 µM (inactive) | > 100 µM (inactive) | > 100 µM (inactive) | > 100 µM (inactive) | > 100 µM (inactive) | > 100 µM (inactive) | > 100 µM (inactive) | > 100 µM (inactive) | > 100 µM (inactive) |
| CC(=O)OCC1OC(Sc2ccccn2)C=CC1OC(C)=O (stereo unspecified) | > 100 µM (inactive) |  |  | > 100 µM (inactive) |  | > 100 µM (inactive) | > 100 µM (inactive) | > 100 µM (inactive) | > 100 µM (inactive) | > 100 µM (inactive) | > 100 µM (inactive) | > 100 µM (inactive) | > 100 µM (inactive) | > 100 µM (inactive) | > 100 µM (inactive) | > 100 µM (inactive) | > 100 µM (inactive) | > 100 µM (inactive) | > 100 µM (inactive) | > 100 µM (inactive) |
| CCCC(=O)n1[nH]c(=O)n(C(C)(C)C)c1=O |  | > 100 µM (inactive) | > 100 µM (inactive) | > 100 µM (inactive) | > 100 |  | 44.1 µM (inactive) |  | > 100 µM (inactive) | > 100 µM (inactive) | > 100 µM (inactive) |  | > 100 µM (inactive) | > 100 µM (inactive) | > 100 µM (inactive) | 39.5 µM (inactive) | > 100 µM (inactive) | > 100 µM (inactive) | > 100 µM (inactive) | > 100 µM (inactive) |
| COCN1C(=O)[C@@H]2CCCN2C(=O)c2cc([N+](=O)[O-])ccc21 | 43 µM (inactive) | 76.7 µM (inactive) | 39.8 µM (inactive) | 86.9 µM (inactive) | > 100 |  | 88.5 µM (inactive) | 16 µM (inactive) | 76.9 µM (inactive) | 35.9 µM (inactive) | 35.5 µM (inactive) | > 100 µM (inactive) | 44.7 µM (inactive) | > 100 µM (inactive) | 96.6 µM (inactive) | 67.9 µM (inactive) | > 100 µM (inactive) | 42 µM (inactive) | 85.7 µM (inactive) |  |
| COc1cccc(/C=N/[N+](C)(C)C)c1O | > 10 µM (inactive) | > 10 µM (inactive) | > 10 µM (inactive) | > 10 µM (inactive) | > 10 |  | > 10 µM (inactive) | > 10 µM (inactive) | > 10 µM (inactive) | > 10 µM (inactive) | > 10 µM (inactive) | > 10 µM (inactive) | > 10 µM (inactive) | > 10 µM (inactive) | > 10 µM (inactive) | > 10 µM (inactive) | > 10 µM (inactive) | > 10 µM (inactive) | > 10 µM (inactive) |  |
| COc1cc(Br)cc2cc(C3=CSC4=NCCN34)c(=O)oc12 |  | 34.7 µM (inactive) | 17.8 µM (inactive) | 17.8 µM (inactive) | 17.2 | 17.1 µM (inactive) |  |  | 18.2 µM (inactive) |  | 19.4 µM (inactive) | 19.9 µM (inactive) | 27.9 µM (inactive) | 17.5 µM (inactive) | 18.1 µM (inactive) | 21 µM (inactive) | 18.8 µM (inactive) | 18.1 µM (inactive) | 17.8 µM (inactive) | 21.9 µM (inactive) |
| CCOC(=O)CNc1c(OCc2ccccc2)c(=O)c1=O |  |  | > 100 µM (inactive) | > 100 µM (inactive) | > 100 |  | > 100 µM (inactive) | > 100 µM (inactive) | > 100 µM (inactive) | > 100 µM (inactive) | > 100 µM (inactive) |  | > 100 µM (inactive) | > 100 µM (inactive) | > 100 µM (inactive) | > 100 µM (inactive) | > 100 µM (inactive) | > 100 µM (inactive) | > 100 µM (inactive) | > 100 µM (inactive) |
